Data from PMC12687421, “Characterisation of an allosteric site in PLCγ enzymes and implications for development of their specific inhibitors” (Biochemical Journal, 2025).

Columns and labels:
PLCγ1^wt [1] = target: T1, PLCγ1^wt (Homo sapiens, UniProt P19174, I813T); assay: Assay 1 (A1) with FGFR1 kinase domain (phosphorylation), with or without nickel lipids; type: biochemical
T1 construct: specific activities of PLCγ1^wt and PLCγ2^wt full-length proteins; made in house; host or cells: Escherichia coli T7 Express lysY/Iq
T1 sequence (P19174 1-1291 isoform P19174-2 I813T): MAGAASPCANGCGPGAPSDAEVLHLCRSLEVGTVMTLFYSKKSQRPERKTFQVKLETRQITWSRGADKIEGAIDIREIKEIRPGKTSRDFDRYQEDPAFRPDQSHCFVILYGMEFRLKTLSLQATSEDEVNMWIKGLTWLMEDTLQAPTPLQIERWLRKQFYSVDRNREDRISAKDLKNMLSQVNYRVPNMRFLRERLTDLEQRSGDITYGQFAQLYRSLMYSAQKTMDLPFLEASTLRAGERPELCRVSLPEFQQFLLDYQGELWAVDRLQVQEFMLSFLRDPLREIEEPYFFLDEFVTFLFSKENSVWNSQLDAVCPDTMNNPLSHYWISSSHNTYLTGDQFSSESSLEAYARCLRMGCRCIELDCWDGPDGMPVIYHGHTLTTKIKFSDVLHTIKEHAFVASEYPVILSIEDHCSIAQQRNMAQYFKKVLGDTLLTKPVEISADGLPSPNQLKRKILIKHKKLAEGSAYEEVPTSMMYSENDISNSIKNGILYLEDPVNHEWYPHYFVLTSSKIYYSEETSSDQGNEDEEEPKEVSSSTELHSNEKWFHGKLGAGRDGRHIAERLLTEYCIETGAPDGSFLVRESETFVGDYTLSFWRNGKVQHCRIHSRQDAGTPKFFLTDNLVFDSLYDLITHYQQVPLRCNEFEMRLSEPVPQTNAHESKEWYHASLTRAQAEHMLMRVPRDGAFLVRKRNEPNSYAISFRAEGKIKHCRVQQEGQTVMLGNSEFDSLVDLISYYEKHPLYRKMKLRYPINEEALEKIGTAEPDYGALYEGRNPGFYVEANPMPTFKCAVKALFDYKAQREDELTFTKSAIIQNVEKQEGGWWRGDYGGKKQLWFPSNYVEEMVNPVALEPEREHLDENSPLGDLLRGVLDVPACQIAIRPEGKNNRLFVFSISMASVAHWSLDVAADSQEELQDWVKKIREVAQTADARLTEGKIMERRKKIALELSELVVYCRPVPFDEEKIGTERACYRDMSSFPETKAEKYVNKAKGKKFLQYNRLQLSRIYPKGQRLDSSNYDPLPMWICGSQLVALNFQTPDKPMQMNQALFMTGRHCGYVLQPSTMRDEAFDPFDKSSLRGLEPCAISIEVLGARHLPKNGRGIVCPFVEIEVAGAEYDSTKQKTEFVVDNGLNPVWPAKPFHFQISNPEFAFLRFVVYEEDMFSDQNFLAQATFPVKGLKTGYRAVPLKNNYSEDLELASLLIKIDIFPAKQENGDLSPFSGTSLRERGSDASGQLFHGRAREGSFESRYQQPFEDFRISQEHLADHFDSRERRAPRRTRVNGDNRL
Protocol: (§1) A CLARIOstar plate reader (BMG Labtech) was used to measure the production of the fluorescent product. The excitation and emission wavelengths were 485–15 and 520–20, respectively. Each experiment was performed in at least triplicate; in many cases, nine-fold replicates were generated. The enzyme progress curves were plotted for each concentration of nucleotide using Graphpad Prism software. The initial linear rate of product generation was calculated and converted to a % inhibition when compared with the rate of PLC activity in the absence of nucleotide. These % inhibition values were plotted against the logarithm of the nucleotide concentration in Graphpad Prism and the data fitted with the function (Inhibitor) vs. response–variable slope (four parameters). The resultant fit yielded the IC50 values for the nucleotide inhibition.
The standard XY-69 assay outlined above was followed with the following changes. The PLC activity buffer also contained 10 mM MgCl2. The final concentration of PLCγ1^WT in the assay was 12.5 nM and also contained a 10-fold excess of the FGFR1 kinase domain. The ATP dilution series was first added to the assay plate, followed by the enzyme mix. […] Subsequently, the standard XY-69 liposomes (with or without nickel lipids) were added, and the experiment monitored in the Clariostar as outlined above.

PLCγ1^wt [2] = target: T1, PLCγ1^wt; assay: Assay 1 (A1) with 10% nickel lipids (His-tagged PLCγ1 immobilised on liposomes); type: biochemical; details: 10% Ni-lipids vs control
Source text: The standard liposome components were designed to mimic a typical plasma membrane composition: 49% PE (brain or synthetic), 1% phosphatidylinositol 4,5-bisphosphate (PIP2), 20% brain phosphatidylserine (PS), 15% phosphatidylcholine (PC), 10% cholesterol and 5% sphingomyelin. The nickel liposome mix consisted of 39% PE (brain or synthetic), 1% PIP2, 20% brain PS, 15% PC, 10% cholesterol, 10% nickel lipid and 5% sphingomyelin.
as §1
The standard XY-69 assay format outlined above was repeated with the addition of 10% nickel lipids in the liposome mixture. […]

## Nc1ncnc2c1ncn2[C@@H]1O[C@H](COP(=O)(O)OP(=O)(O)OP(=O)(O)O)[C@@H](O)[C@H]1O [ATP]
PLCγ1^wt [1]; 10% Ni-lipids and FGFR1-KD, range of ATP concentrations including physiological levels
  inhibition with membrane proximity and phospho-PLCγ1 combined: clear reduction in nucleotide inhibition
PLCγ1^wt [1]; FGFR1 kinase domain, no Ni-lipids
  PLC activity with increasing ATP in presence of FGFR1 kinase: enhanced PLC activity compared with the control
PLCγ1^wt [2]
  effect of immobilisation to liposomes on inhibition of PLC activity: prevented or, at higher concentrations, reduced inhibition
